Data as given in PMC4338079, “N-Terminus Three Residues Deletion Mutant of Human Beta-Defensin 3 with Remarkably Enhanced Salt-Resistance” (PLoS ONE, 2015).
Where a SMILES comes first, the peptide text is derived from it. Where no end group is shown, it is not given here.

Experiments:
[1] = system: K. pneumonia ATCC 700603; format: cell-based, Klebsiella pneumonia; conditions: 10^5-10^6 CFU/ml in PBS pH 7.2, 3 h at 37°C, colony count, mean ± SD of three
From the text: (§1) Ten strains obtained from the American Type Culture Collection (ATCC) and China Center of Industrial Culture Collection (CICC) were used for antibacterial and salt resistance assays. The Gram-positive strains were Staphyloccocus aureus ATCC 29213, Enterococcus faecalis ATCC 29212, Staphylococcus epidermidis ATCC 12228, Enterococcus faecium ATCC 6057, and Enterococcus faecium ATCC 19434. The Gram-negative strains were Escherichia coli ATCC 25922, Pseudomonas aeruginosa ATCC 15442, Klebsiella pneumonia ATCC 700603, Shigella flexneri CICC 21534, and Shigella sonnei CICC 21535. Fifteen E. coli clinical isolates were collected from 302 Military Hospital of China. The Gram-positive and Gram-negative strains were grown in Luria—Bertani (LB) and Mueller—Hinton (MH) media at 37°C, respectively.
(§2) The antibacterial activities of these peptides were determined in a modified microdilution assay as described previously. […] The five concentrations of the peptides were added to 200 μl of the bacterial suspension and then incubated at 37°C for 3 h before CFU numbers were determined. […] The cells were serially diluted in the same buffer, plated on Luria broth plates, and then incubated for 18 h at 37°C before the resulting colonies were counted. The bactericidal activity was expressed as the ratio of colonies counted to the number of colonies on a control plate. […]

[2] = system: P. Aeruginosa ATCC 15442; format: cell-based, Pseudomonas aeruginosa; conditions: 10^5-10^6 CFU/ml in PBS pH 7.2, 3 h at 37°C, colony count, mean ± SD of three
From the text: as §1, §2

[3] = system: E. faecalis ATCC 29212; format: cell-based, Enterococcus faecalis; conditions: 10^5-10^6 CFU/ml in PBS pH 7.2, 3 h at 37°C, colony count, mean ± SD of three
From the text: as §1, §2

[4] = system: Vero cells
Experimental: Vero cells suspended in Dulbecco’s modified Eagle’s medium (DMEM)-high glucose culture medium supplemented with 10% (vol/vol) fetal calf serum and 1% (vol/vol) penicillin—streptomycin were seeded on a 96-well microtiter plate at a density of 1×10^4 cells per well. After incubation overnight at 37°C under 5% CO2 in a humidified atmosphere, the cells were washed twice with buffer (pH 7.4) containing 20 mM HEPES and 150 mM NaCl. Defensins were diluted in the same wash buffer, and 200 μl was added per well. The buffer was discarded after 2 h of incubation at 37°C under 5% CO2. Subsequently, 200 μl of DMEM and 50 μl of 3-(4,5-dimethylthiazol-2-yl)-2,5-diphenyltetrazolium bromide (MTT, 5 mg/ml) were added. DMEM (100%) and MTT were discarded, and 200 μl of DMSO was added in the plate after 6 h of incubation at 37°C under 5% CO2. The absorbance was measured at 490 nm with a microtiter plate reader.

[5] = system: S. sonnei CICC 21535; format: cell-based, Shigella sonnei; conditions: 10^5-10^6 CFU/ml in PBS pH 7.2, 3 h at 37°C, colony count, mean ± SD of three
From the text: as §1, §2

[6] = system: E. coli ATCC 25922; format: cell-based, Escherichia coli; conditions: 10^5-10^6 CFU/ml in PBS pH 7.2, 3 h at 37°C, colony count, mean ± SD of three
From the text: as §1, §2

[7] = system: four Gram-positive and five Gram-negative bacteria; experiment: Salt resistance assay, summary over the nine tested strains; format: cell-based; conditions: peptide 10 μg/ml (30 μg/ml K. pneumonia)
Experimental: (§3) The antibacterial activities of these peptides were determined in a modified microdilution assay as described previously. The strains were grown under aerobic condition in MH or LB broth at 37°C and then harvested in the exponential phase of growth (OD600 ≈ 0.6. OD, optical density). After dilution, the test strains were adjusted to 10^5 to 10^6 CFU bacteria per ml in phosphate-buffered saline solution (pH 7.2). The five concentrations of the peptides were added to 200 μl of the bacterial suspension and then incubated at 37°C for 3 h before CFU numbers were determined. Phosphate buffer served as the negative control. The cells were serially diluted in the same buffer, plated on Luria broth plates, and then incubated for 18 h at 37°C before the resulting colonies were counted. The bactericidal activity was expressed as the ratio of colonies counted to the number of colonies on a control plate. The 90% lethal concentration (LD90) is the concentration of the peptide at which 90% of viable cells are killed.
(§4) For the salt resistance assay, NaCl was included in the incubation buffer (1% MH or LB) over a range of concentrations (0, 50, 100, 150, and 200 mM NaCl) potentially present in the airway surface fluid of healthy subjects and patients with cystic fibrosis. For E. coli clinical isolates, the NaCl concentrations were increased to 0, 50, 100, 150, 200, 250, and 300 mM. The peptide concentration used in the salt dependence assay was 10 μg/ml, except for the 30 μg/ml concentration used against K. pneumonia ATCC 700603. Each assay was performed in triplicate. Bactericidal activity (the mean and standard deviation of three assays) was expressed as the ratio between the number of colonies counted and the number of colonies on a control plate.

[8] = system: fifteen E. coli clinical isolates; experiment: Salt resistance assay against clinical isolates; format: cell-based, Escherichia coli; conditions: of 15 E. coli clinical isolates, peptide 10 μg/ml
From the text: as §1, §3, §4

[9] = system: S. epidermidis ATCC 12228; format: cell-based, Staphylococcus epidermidis; conditions: 10^5-10^6 CFU/ml in PBS pH 7.2, 3 h at 37°C, colony count, mean ± SD of three
From the text: as §1, §2

[10] = system: S. flexneri CICC 21534; format: cell-based, Shigella flexneri; conditions: 10^5-10^6 CFU/ml in PBS pH 7.2, 3 h at 37°C, colony count, mean ± SD of three
From the text: as §1, §2

[11] = system: E. faecium ATCC 6057; format: cell-based, Enterococcus faecium; conditions: 10^5-10^6 CFU/ml in PBS pH 7.2, 3 h at 37°C, colony count, mean ± SD of three
From the text: as §1, §2

[12] = system: E. faecium ATCC 19434; format: cell-based, Enterococcus faecium; conditions: 10^5-10^6 CFU/ml in PBS pH 7.2, 3 h at 37°C, colony count, mean ± SD of three
From the text: as §1, §2

[13] = system: S. aureus ATCC 29213; format: cell-based, Staphyloccocus aureus; conditions: 10^5-10^6 CFU/ml in PBS pH 7.2, 3 h at 37°C, colony count, mean ± SD of three
From the text: as §1, §2

Molecule | LD90 (Mean ± SD) [1] | LD90 (Mean ± SD) [2] [µg/mL] | LD90 (Mean ± SD) [3] [µg/mL] | Concentration from which cytotoxicity starts [4] | LD90 (Mean ± SD) [5] [µg/mL] | LD90 (Mean ± SD) [6] [µg/mL] | Effect of NaCl on antibacterial activity ([7]; 50 mM NaCl, all the tested strains, except for E. coli) | Effect of NaCl on antibacterial activity ([7]; 200 mM NaCl versus 0 mM NaCl, P < 0.01) | Number of isolates in which 50% or more activity was retained ([8]; 200 mM NaCl) | LD90 (Mean ± SD) [9] [µg/mL] | LD90 (Mean ± SD) [10] [µg/mL] | LD90 (Mean ± SD) [11] [µg/mL] | LD90 (Mean ± SD) [12] [µg/mL] | LD90 (Mean ± SD) [13] [µg/mL] | Effect of NaCl on antibacterial activity ([7]; 100 mM NaCl, all the tested strains, except for S. aureus) | Number of isolates in which 50% or more activity was retained ([8]; 250 mM NaCl) [isolates] | Number of isolates in which 50% or more activity was retained ([8]; 300 mM NaCl) [isolates]
CC[C@H](C)[C@H](NC(=O)[C@H](CCC(N)=O)NC(=O)[C@H](CCC(=O)O)NC(=O)[C@H](CCC(=O)O)NC(=O)[C@H](CCCCN)NC(=O)[C@@H]1CCCN1C(=O)[C@H](CC(C)C)NC(=O)[C@H](CS)NC(=O)[C@H](CO)NC(=O)[C@H](CC(C)C)NC(=O)[C@@H](NC(=O)[C@H](C)NC(=O)[C@H](CS)NC(=O)[C@H](CCCNC(=N)N)NC(=O)CNC(=O)CNC(=O)[C@H](CCCNC(=N)N)NC(=O)[C@@H](NC(=O)[C@H](CCCNC(=N)N)NC(=O)[C@H](CS)NC(=O)[C@@H](N)Cc1ccc(O)cc1)C(C)C)C(C)C)C(=O)NCC(=O)N[C@@H](CCCCN)C(=O)N[C@@H](CS)C(=O)N[C@@H](CO)C(=O)N[C@H](C(=O)N[C@@H](CCCNC(=N)N)C(=O)NCC(=O)N[C@@H](CCCNC(=N)N)C(=O)N[C@@H](CCCCN)C(=O)N[C@@H](CS)C(=O)N[C@@H](CS)C(=O)N[C@@H](CCCNC(=N)N)C(=O)N[C@@H](CCCNC(=N)N)C(=O)N[C@@H](CCCCN)C(=O)N[C@@H](CCCCN)C(=O)O)[C@@H](C)O [hBD-3Δ10] (H-YCRVRGGRCAVLSCLPKEEQIGKCSTRGRKCCRRKK-OH; N-terminus and C-terminus assumed) | more than 100 μg/ml |  |  |  |  |  |  |  |  |  |  |  |  |  |  |  | 
GIINTLQKYYCRVRGGRCAVLSCLPKEEQIGKCSTRGRKCCRRKK (cysteines drawn unpaired) [hBD-3, human beta-defensin 3] | 18.6 ± 2.8 µg/mL | 6.8 ± 0.9 | 2.4 ± 1.0 | higher than 20 μg/ml | 4.0 ± 0.7 | 8.0 ± 1.2 | not or slightly inhibited | greatly inhibited | two | 3.5 ± 1.2 | 3.7 ± 0.2 | 1.6 ± 0.4 | 2.3 ± 0.5 | 4.0 ± 0.8 |  |  | 
NTLQKYYCRVRGGRCAVLSCLPKEEQIGKCSTRGRKCCRRKK (cysteines drawn unpaired) [hBD-3Δ4] |  |  |  |  |  |  |  |  | 14 isolates |  |  |  |  |  | almost the same antimicrobial activity as it would have in the absence of NaCl | 8 | 5
